From paper PMC5537602, “TRPA1 channel mediates organophosphate-induced delayed neuropathy” (Cell Discovery, 2017)
Where two headings read alike, the source gives them in different places.

Experiments:
hTRPA1 = target: T1, hTRPA1 (Homo sapiens, UniProt O75762); test: cell-based; assay type: cell-based; conditions: for activation of hTRPA1 whole-cell currents: 30 μM, calcium-free external solution; for activation of hTRPA1 whole-cell currents by NTE inhibitors: 100 μM
T1 construct: expressed in transfected cells; host or cells: HEK293, transient, EGFP plasmid co-transfected
Experimental: Human embryonic kidney 293 (HEK293) cells were cultured in DMEM containing 10% (vol/vol) heat-inactivated fetal bovine serum, 100 units ml^−1 penicillin–streptomycin and 2 mM L-glutamine at 37 °C in a humidity-controlled sterile incubator with 5% CO2. All cell culture reagents were purchased from Life Technologies. HEK293 cells were transfected transiently with the corresponding plasmids using lipofectamine 2000 (Life Technologies). Transfection efficiency was monitored by co-transfecting EGFP plasmid which codes for the enhanced green fluorescent protein. Electrophysiological recordings were performed between 24 and 36 h after transfection.
(§1) Whole-cell patch-clamp recordings in DRG neurons (small diameter, […]) and HEK293 cells were operated at room temperature (23–25 °C) using EPC-10 amplifier and Patch Master Software (HEKA). […] Currents were sampled at 10 kHz and low-pass filtered at 2.9 kHz. The internal solution was as follows (in mM): 140 CsCl, 10 HEPES, 5 EGTA, 0.1 CaCl2 and 1 MgCl2, with pH adjusted to 7.2 by CsOH and osmolarity 295–300 mOsm. The calcium-free external solution contained (in mM) 140 NaCl, 5 KCl, 0.5 EGTA, 1 MgCl2, 10 Glucose and 10 HEPES, with pH adjusted to 7.4 by NaOH and osmolarity 300–310 mOsm. The 0.5 mM EGTA was replaced by 2 mM CaCl2 for the recordings in DRG neurons. TRPA1 currents development was monitored with repetitive injections of 300 ms duration voltage ramps from −100 to +100 mV every 2 s and the holding potential was set to 0 mV for 50 ms, existing in both sides of the voltage ramp. To record inward currents in DRG neurons, we conducted voltage clamp at holding membrane potential of −70 mV. Solutions were switched using a gravity-fed continuous focal perfusion system.

mouse DRG neurons [1] = test: Single-cell calcium imaging (Fura-2/AM) of isolated DRG neurons; assay type: cell-based
Experimental: (§2) DRG neurons were isolated from young C57 BL/6 mice (4–5 weeks). The sections of thoracic and lumbar DRG neurons were rapidly isolated in calcium and magnesium-free PBS with low temperature conditions (ice-bath environment). The isolated tissues were cut into pieces with scissor and incubated for 30 min with 0.1% collagenase and 0.025% trypsin which were diluted by DMEM-F12 at 37 °C. After digestion, neurons were gently dissociated using Pasteur pipettes and then plated onto poly-D-lysine pre-coated glass cover slips. DRG neurons were cultured for 24 h before use.
Calcium influx signals were monitored using the ratio metric fluorescent indicator dye Fura-2/AM at room temperature (23–25 °C). Cells were incubated with 2 μM Fura-2/AM, which was generated by diluting the stock solution with normal external solution, for 30 min at 37 °C. […] The maximum excitation wave length of Fura-2/AM was changed to 340 nm from 380 nm when combined with calcium ions. Fura-2/AM was excited at 340 and 380 nm with a rapid switching monochromator obtained from TILL Photonics, and the mean fluorescence intensity ratios (F340/F380) reflected real-time changes in the concentration of intracellular free calcium ions. The external solution used in the DRG whole-cell patch-clamp recordings was also used for calcium imaging. Solutions were switched using a gravity-fed continuous focal perfusion system.

mouse DRG neurons [2] = test: Whole-cell patch-clamp of small-diameter DRG neurons; assay type: cell-based
Experimental: as §2, §1

mice [3] = test: Behavioral testing of mice (paw-licking time after intraplantar injection); assay type: in vivo, mouse; conditions: WT mice; AITC 10 μl 5%, malathion 10 μl 30%, intraplantar
Experimental: The chosen mice were allowed to acclimate to the experimental environment for at least 2 h before testing. Intraplantar injection of 5% AITC and 30% malathion (10 μl) was achieved using separate injectors. Spontaneous pain evoked by the compounds was assessed by measuring the time (s) the mice spent on licking. For the HC030031 groups, 200 mg kg^−1 HC030031 was intragastrically administered, and then the test was conducted after 1 h. The testing phase was divided into two parts: 0–10 min and 11–60 min.

mice [4] = test: Transmission electron microscopy of local nerve fibers in mice; assay type: in vivo, mouse; conditions: WT mice; plantar injection, 5% AITC or 30% malathion
Experimental: For mice, subcutaneous tissue from the site of exposure was removed and fixed by immediate immersion in ice-cold 2.5% glutaraldehyde. Subsequently, the samples were post-fixed in 1% OsO4 for 1 h, dehydrated with an ethanol series and embedded in epon resin. Sixty-nanometer ultra-thin sections were double stained with lead citrate and uranyl acetate and examined using an electron microscopy.

mTRPA1 = mTRPA1 (Mus musculus, UniProt Q8BLA8); test: FDSS Ca2+-influx assay, HEK293 cells stably expressing mTRPA1; assay type: cell-based; design: expressed in transfected cells
Experimental: Ca^2+-influx assays were carried out using HEK293 cells stably expressing mTRPA1 channels with an FDSS screening system (Hamamatsu, Japan). Before the start of the assay, HEK293-mTRPA1 cells were plated onto poly-D-Lysine (40 μg ml^−1) coated 96-well black clear bottom plate with the cell density of 300 000 cells per milliliter in DMEM supplemented with 10% (vol/vol) fetal bovine serum, 200 μg ml^−1 Hygromycin B, 15 μg ml^−1 Blasticidin S HCL and 0.3 μg ml^−1 doxycycline, which could induce the expression of mTRPA1. The 96-well plate was then put in sterile incubator overnight. The following day, Ca^2+ influx dye Fluo-4/AM stock was diluted to 2 μM with bath solution, and added (50 μl per well) in place of the culture medium. The plate was then incubated to load the Fluo-4/AM into cells for 60 min at 37 °C in dark environment. During the incubation, we prepared the compound plate (96-well) and the margin of plate was set as blank control due to the fringing effect. At the end of dye loading period, the remnant dye was removed using bath solution to wash the 96-well cell plate twice and then add 80 μl bath solution per well.

cTRPA1 = target: T2, cTRPA1 (Gallus gallus, UniProt W8VTH6); test: Whole-cell patch-clamp, HEK293 cells expressing cTRPA1; assay type: cell-based, chicken
T2 sequence (W8VTH6 1-1126): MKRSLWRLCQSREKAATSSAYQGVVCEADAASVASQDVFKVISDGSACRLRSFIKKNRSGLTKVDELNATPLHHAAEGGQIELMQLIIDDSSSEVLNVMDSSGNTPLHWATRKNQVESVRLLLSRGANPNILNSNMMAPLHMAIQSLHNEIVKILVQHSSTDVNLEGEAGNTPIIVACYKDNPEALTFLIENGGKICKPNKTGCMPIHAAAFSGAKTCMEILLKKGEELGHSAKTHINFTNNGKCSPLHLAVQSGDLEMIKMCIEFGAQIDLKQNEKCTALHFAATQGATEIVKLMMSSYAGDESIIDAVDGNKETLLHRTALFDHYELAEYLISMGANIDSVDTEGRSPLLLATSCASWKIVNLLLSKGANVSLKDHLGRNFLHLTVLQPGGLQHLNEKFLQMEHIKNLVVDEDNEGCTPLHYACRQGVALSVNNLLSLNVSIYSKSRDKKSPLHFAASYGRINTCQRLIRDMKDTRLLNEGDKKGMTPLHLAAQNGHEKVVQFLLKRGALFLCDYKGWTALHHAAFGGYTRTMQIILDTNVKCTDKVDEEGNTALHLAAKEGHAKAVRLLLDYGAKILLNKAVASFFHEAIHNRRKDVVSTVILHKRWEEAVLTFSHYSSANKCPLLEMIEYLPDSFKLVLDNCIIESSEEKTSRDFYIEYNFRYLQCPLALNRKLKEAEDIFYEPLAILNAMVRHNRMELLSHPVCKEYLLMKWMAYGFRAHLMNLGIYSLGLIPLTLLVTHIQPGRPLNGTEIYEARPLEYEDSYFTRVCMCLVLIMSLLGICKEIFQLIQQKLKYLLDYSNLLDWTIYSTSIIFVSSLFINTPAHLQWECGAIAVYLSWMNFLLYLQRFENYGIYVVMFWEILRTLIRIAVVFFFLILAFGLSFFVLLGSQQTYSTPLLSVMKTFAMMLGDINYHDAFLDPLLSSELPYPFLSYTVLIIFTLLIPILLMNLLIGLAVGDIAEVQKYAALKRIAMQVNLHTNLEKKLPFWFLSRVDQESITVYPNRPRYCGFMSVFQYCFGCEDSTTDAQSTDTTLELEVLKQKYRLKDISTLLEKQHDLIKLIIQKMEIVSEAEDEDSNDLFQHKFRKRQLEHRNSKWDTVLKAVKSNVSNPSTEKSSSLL
Experimental: All cell culture reagents were purchased from Life Technologies. HEK293 cells were transfected transiently with the corresponding plasmids using lipofectamine 2000 (Life Technologies). Transfection efficiency was monitored by co-transfecting EGFP plasmid which codes for the enhanced green fluorescent protein. Electrophysiological recordings were performed between 24 and 36 h after transfection.
as §1, with “The internal solution was as follows (in mM): 140 CsCl, 10 HEPES, 5 EGTA, 0.1 CaCl2 and 1 MgCl2, with pH adjusted to 7.2 by CsOH and osmolarity 295–300 mOsm.” left out

hens = assay type: in vivo, hen
Experimental: The chosen adult Hyline Brown hens were raised individually in stainless steel wire cages. After 7 days of acclimatization, the chosen hens were randomly divided into groups (n=6–10 for each group). The hens in the delayed neuropathy groups were administered a single dose of 750 mg kg^−1 TOCP and repeated doses of 75 mg kg^−1 malathion by gavage. TOCP and malathion were dissolved in corn oil and administered at 0.65 ml kg^−1. In the HC030031 treatment groups, 100 mg kg^−1 HC030031 was administered by gavage daily beginning at day 0 or day 11. All hens were examined daily for signs of delayed neurotoxicity. A five-point graded scale was used to describe the clinical symptoms of delayed neuropathy, with 0 indicating normal ambulation; (1) suspected ataxia (lack of strength in the legs and tottering); (2) mild ataxia (slow, clumsy and unsteady gait); (3) gross ataxia (waddling gait and staggering and falling despite being active); (4) mild paralysis (typical paralytic posture and lame appearance); and (5) complete paralysis (unable to maintain posture, stand up or move at all), as described previously.

Chain of mTRPA1 (Q8BLA8 whole entry): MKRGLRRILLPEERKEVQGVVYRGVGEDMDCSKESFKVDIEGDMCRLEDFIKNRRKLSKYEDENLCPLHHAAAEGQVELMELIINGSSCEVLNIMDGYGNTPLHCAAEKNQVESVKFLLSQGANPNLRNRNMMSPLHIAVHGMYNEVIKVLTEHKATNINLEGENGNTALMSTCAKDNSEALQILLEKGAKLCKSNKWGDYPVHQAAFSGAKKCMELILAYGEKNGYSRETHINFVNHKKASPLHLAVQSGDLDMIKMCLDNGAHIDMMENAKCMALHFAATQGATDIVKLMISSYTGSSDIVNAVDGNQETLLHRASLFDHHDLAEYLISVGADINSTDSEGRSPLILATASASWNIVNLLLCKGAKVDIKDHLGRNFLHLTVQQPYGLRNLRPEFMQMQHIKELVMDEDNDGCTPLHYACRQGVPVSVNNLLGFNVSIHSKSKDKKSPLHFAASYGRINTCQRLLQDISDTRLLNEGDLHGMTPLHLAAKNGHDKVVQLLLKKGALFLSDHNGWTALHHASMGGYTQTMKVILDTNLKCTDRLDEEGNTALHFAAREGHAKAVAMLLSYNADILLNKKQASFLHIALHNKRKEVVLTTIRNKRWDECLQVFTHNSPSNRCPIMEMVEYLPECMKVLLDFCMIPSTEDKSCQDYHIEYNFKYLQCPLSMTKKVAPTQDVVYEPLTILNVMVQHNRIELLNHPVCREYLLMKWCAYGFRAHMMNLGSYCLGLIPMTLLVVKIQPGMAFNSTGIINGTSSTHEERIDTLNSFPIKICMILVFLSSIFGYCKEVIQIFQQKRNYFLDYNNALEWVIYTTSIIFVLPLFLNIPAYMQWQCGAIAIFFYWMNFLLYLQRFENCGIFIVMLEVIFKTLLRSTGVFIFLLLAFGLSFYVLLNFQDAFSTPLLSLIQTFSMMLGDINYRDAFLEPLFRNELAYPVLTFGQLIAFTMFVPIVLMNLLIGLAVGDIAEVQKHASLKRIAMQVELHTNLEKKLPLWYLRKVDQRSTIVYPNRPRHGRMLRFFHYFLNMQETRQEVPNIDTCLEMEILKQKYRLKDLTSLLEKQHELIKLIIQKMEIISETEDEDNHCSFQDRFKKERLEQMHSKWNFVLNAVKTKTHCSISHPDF
T1 sequence (O75762 whole entry): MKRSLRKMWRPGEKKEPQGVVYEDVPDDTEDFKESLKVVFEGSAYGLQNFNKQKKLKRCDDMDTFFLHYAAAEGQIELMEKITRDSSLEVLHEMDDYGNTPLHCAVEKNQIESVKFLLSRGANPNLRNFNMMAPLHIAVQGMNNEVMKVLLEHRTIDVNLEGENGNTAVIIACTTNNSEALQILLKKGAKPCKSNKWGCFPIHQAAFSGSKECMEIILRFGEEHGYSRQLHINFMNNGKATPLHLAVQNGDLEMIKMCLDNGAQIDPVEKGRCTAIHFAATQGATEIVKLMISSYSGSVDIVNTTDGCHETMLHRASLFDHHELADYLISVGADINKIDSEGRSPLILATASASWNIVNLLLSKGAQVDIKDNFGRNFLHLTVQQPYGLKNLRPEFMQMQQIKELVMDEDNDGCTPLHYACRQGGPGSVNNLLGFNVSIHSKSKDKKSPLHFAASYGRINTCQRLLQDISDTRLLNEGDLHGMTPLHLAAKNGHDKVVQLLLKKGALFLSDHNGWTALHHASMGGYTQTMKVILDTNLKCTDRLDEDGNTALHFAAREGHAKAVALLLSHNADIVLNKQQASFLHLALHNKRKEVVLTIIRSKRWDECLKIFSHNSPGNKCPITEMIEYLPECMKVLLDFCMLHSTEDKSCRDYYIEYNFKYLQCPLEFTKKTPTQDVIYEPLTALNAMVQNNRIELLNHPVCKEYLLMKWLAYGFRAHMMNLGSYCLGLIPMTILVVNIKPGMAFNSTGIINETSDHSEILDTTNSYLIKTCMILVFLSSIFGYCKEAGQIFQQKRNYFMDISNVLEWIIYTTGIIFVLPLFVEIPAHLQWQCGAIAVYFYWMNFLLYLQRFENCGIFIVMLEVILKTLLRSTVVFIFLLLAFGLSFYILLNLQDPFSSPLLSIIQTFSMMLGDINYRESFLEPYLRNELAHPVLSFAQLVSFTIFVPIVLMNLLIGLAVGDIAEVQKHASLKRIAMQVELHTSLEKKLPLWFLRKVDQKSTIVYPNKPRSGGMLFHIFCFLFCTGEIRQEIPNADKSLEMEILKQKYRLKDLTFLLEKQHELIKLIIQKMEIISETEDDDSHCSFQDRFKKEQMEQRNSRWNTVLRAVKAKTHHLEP

SMILES | activation of hTRPA1 whole-cell currents (hTRPA1) | activation of hTRPA1 whole-cell currents by NTE inhibitors (hTRPA1) | EC50 (mTRPA1) | also measured
C=CCN=C=S [AITC, allyl isothiocyanate] | activated |  |  | [Ca2+]i response of DRG neurons from Trpa1−/− mice (mouse DRG neurons [1]; Trpa1−/− neurons): thoroughly unresponsive; neurons displaying a robust increase in [Ca2+]i (mouse DRG neurons [1]; wild-type small-diameter neurons, sequential application of AITC and malathion, 197/451): ~ 44%; action potential firing in WT small-diameter neurons (mouse DRG neurons [2]; 100 μM): bursts of action potentials; currents in neurons from Trpa1−/− mice (mouse DRG neurons [2]; Trpa1−/− neurons, 17/17): failed to induce currents; nocifensive behavior (paw-licking) after plantar injection (mice [3]): nociception-like response; nerve fiber damage around the injection site (TEM) (mice [4]): damage of the myelin sheath
O=S(=O)(Cl)c1ccccc1 [Benzenesulfonyl chloride] |  | activated |  | 
CCSC(=O)N(CC(C)C)CC(C)C [Butylate] |  | activated |  | 
CCOC(=O)OCC [Ethyl carbonate] |  | activated |  | 
O=S(=O)(Cl)Cc1ccccc1 [Phenylmethanesulfonyl chloride] |  | activated |  | 
CCOP(=S)(OCC)Oc1nc(Cl)c(Cl)cc1Cl [chlorpyrifos] | activated |  |  | EC50 (mTRPA1; HEK293 cells, change in [Ca2+]i, read-out: EC50, activation of mTRPA1): 10 to 40 µM
CNCC[C@H](Oc1cccc2ccccc12)c1cccs1 [duloxetine] |  |  |  | IC50 (cTRPA1; manual whole-cell patch-clamp, TOCP-induced currents, read-out: IC50 on cTRPA1 channels): 4.69 ± 1.4 µM; effect on TOCP-induced symptoms (OPIDN scores) (hens; in vivo): significantly alleviated
COP(=S)(OC)Oc1ccc(SC)c(C)c1 [fenthion] | activated |  | 10 to 40 µM | 
CN1CCC(=C2c3ccccc3CC(=O)c3sccc32)CC1 [ketotifen] |  |  |  | IC50 (cTRPA1): 5.79 ± 1.18 µM; effect on TOCP-induced symptoms (OPIDN scores) (hens; hens, 100 mg kg−1 daily by gavage from day 0): significantly alleviated
COc1nn(CSP(=S)(OC)OC)c(=O)s1 [methidathion] | activated |  | 10 to 40 µM | 
COP(=O)(OC)OC(Br)C(Cl)(Cl)Br (stereo not shown) [naled] | activated |  | 10 to 40 µM | 
CCOP(=S)(OCC)O/N=C(\C#N)c1ccccc1 [phoxim] | activated |  | 10 to 40 µM | 
